Patent publication US20240165188A1, “Method for the treatment of microbial overgrowth, imbalance and infections” (TRINUTRA LTD., priority 2021, published 2024)

Test system: C. albicans (Robin) Berkhout (ATCC catalogue no. 96901), fluconazole resistant
Assay: Disc diffusion assay, inhibition of Candida albicans growth on agar
Assay type: cell-based
Conditions: C. albicans fluconazole-resistant strain; undiluted (100%); 24 hours; FIG. 2
Description: A frozen stock of C. albicans (Robin) Berkhout (ATCC catalogue no. 96901) was thawed and incubated at 25 degrees Celsius for 72 hours in 200 YM medium. Following dilution 1:10, the culture was incubated for a further 24 hours. Following further dilution (1:10), the culture is grown for an additional 3 hours prior to use.
Antibiotic assay discs (Whatman discs, supplied by Sigma-Aldrich) were prepared in advance by means of saturating them with the test solutions and controls.
Agar plates were prepared and labelled as described in Example 1, above. The plates were then incubated at 25° C. and the area of inhibited fungal growth was measured and photographed after 24 hours.
• 1. Black seed oil 3% thymoquinone (TQ), 2% FFA. • 2. Black seed oil 3% thymoquinone (TQ), 10% FFA. • 3. Black seed oil 0.5% thymoquinone (TQ), 2% FFA. • 4. Black seed oil 0.5% thymoquinone (TQ), 10% FFA. • 5. Black seed oil 1.8% thymoquinone (TQ), 2% FFA formulation
• 6. Negative control (empty discs) • 7. Positive control I (0.05% zinc pyrithione). • 8. Positive control II (100 micrograms fluconazole)
All concentrations given above are w/w concentrations. The various black seed oil preparations were cold-pressed Nigella sativa oils obtained from NS Oils Ltd. (Kibbutz Sa'ad, Israel).
Each of the 5 test substances (at a concentration of 100%, i.e., undiluted) was assayed for antifungal activity, as described above.

OC(Cn1cncn1)(Cn1cncn1)c1ccc(F)cc1F [fluconazole]
size of the fungal inhibition zones (antifungal effect): lack of inhibitory activity
